{"source": "patent US11661409B1", "about": "“Acid addition salts, compositions, and methods of treating” (Pioneura Corporation, priority 2022, dated 2023)", "key": {"[1]": {"experiment": "Pharmacokinetics of aqueous suspensions in mice", "conditions": "for Cmax: equimolar dose 10 mg/kg of free base, plasma Compound 1", "procedure": "(§1) Blood was sampled with microbleeds frequently to produce the pharmacokinetics curves (AUCs).\n(§2) The dosing suspension was analyzed before administration to the animals to ensure that the actual concentration was known."}, "[2]": {"conditions": "mice; cited from earlier work"}, "[3]": {"experiment": "Solubility in methanol, ethanol, 95% ethanol", "assay_type": "physicochemical", "from_the_text": "Dual solvent systems were used, comprising methanol and ether, by dissolving the salt in a small volume of methanol and then adjusting the solubility by adding ether to the point of slight cloudiness. These samples then remained in the reaction vessel as needed to precipitate."}, "[4]": {"experiment": "Solubility and plasma levels of Compound 1 (general statements)", "assay_type": "physicochemical", "from_the_text": "There is a significant, unmet need for means to administer Compound 1 to treat diseases or disorders, such as diseases or disorders associated with neuroinflammation. The present disclosure fulfills these and other needs, as evident in reference to the following disclosure.\nTo improve solubility, attempts to prepare acid addition salts from suitably acidic carboxylic acids (e.g., fumaric acid, maleic acid, citric acid, tartaric acid), standard mineral acids (e.g., hydrobromic acid, sulfuric acid, phosphoric acid), and sulfonic acids (e.g., toluenesulfonic acid, methanesulfonic acid, ethanesulfonic acid, benzenesulfonic acid), were conducted."}, "[5]": {"conditions": "mouse, in vivo, 10 mg/kg", "procedure": "as §1, §2"}, "[6]": {"experiment": "Dissolution behaviour in water", "assay_type": "physicochemical", "experimental": "Pharmaceutically acceptable salts were prepared using tartaric acid, fumaric acid, and phosphoric acid."}, "[7]": {"conditions": "mice, aqueous suspension, 10 mg/kg of free base, 10 mg/kg"}, "[8]": {"conditions": "mice, aqueous suspension, 10 mg/kg of free base"}}, "note": "“Also recorded” adds a separate entry of the source. Like-named read-outs stand apart in the source and are kept apart here.", "data": [{"molecule": "CN1CCN(Cc2ccc(-c3cnc4[nH]cc(-c5ccc6[nH]ccc6c5)c4c3)cc2)CC1", "note": "[Compound 1, 3-(1H-indol-5-yl)-5-[4-[(4-methyl-1-piperazinyl)methyl]phenyl]-1H-pyrrolo[2,3-b]pyridine]", "values": [{"measurement": "Mean plasma concentration at 0.33 hr", "setting": "[1]; mice, aqueous suspension, 10 mg/kg of free base, 0.33 hr, 10 mg/kg", "result": "LLQ"}, {"measurement": "Mean plasma concentration at 1.0 hr", "setting": "[1]; [7]", "result": 1.91, "unit": "ng/mL"}, {"measurement": "Mean plasma concentration at 1.5 hr", "setting": "[1]; [7]", "result": 10.0, "unit": "ng/mL"}, {"measurement": "concentration at 0.67 h", "setting": "[1]; mouse, plasma, oral, 10 mg/kg, Mean plasma concentration at 0.67 hr, mice, aqueous suspension, 10 mg/kg of free base, 0.67 hr", "result": 1.46, "unit": "ng/mL"}, {"measurement": "concentration at 2 h", "setting": "[1]; mouse, plasma, oral, 10 mg/kg, Mean plasma concentration at 2.0 hr, mice, aqueous suspension, 10 mg/kg of free base, 2.0 hr", "result": 20.4, "unit": "ng/mL"}, {"measurement": "concentration at 4 h", "setting": "[1]; mouse, plasma, oral, 10 mg/kg, Mean plasma concentration at 4.0 hr, mice, aqueous suspension, 10 mg/kg of free base, 4.0 hr", "result": 46.9, "unit": "ng/mL"}, {"measurement": "Tmax", "setting": "[1]; mouse, plasma, po, 10 mg/kg", "result": 6, "unit": "h"}, {"measurement": "AUC(0-t)", "setting": "[1]; mouse, plasma, po, 10 mg/kg, AUClast, mice, aqueous suspension, 10 mg/kg of free base, 6-hour study", "result": 181, "unit": "ng·h/mL"}, {"measurement": "Cmax", "setting": "[1]; mouse, plasma, po, 10 mg/kg, Cmax, mice, aqueous suspension", "result": 56.3, "unit": "ng/mL"}, {"measurement": "pharmacokinetic properties and CNS penetration", "setting": "[2]", "result": "excellent pharmacokinetic properties and central nervous system (CNS) penetration"}, {"measurement": "solubility in methanol, ethanol or 95% ethanol", "setting": "[3]; listed as free base", "result": "not very soluble in methanol, ethanol, or 95% ethanol at room temperature"}, {"measurement": "plasma serum levels upon administration without excipients such as DMSO", "setting": "[4]", "result": "only low plasma serum levels"}, {"measurement": "solubility in water / aqueous and organic carriers", "setting": "[4]", "result": "insoluble in water; also recorded: limited solubility in typical aqueous and organic carriers"}]}, {"molecule": "CN1CCN(Cc2ccc(-c3cnc4[nH]cc(-c5ccc6[nH]ccc6c5)c4c3)cc2)CC1", "note": "[Phosphate, 3-(1H-indol-5-yl)-5-[4-[(4-methyl-1-piperazinyl)methyl]phenyl]-1H-pyrrolo[2,3-b]pyridine]", "values": [{"measurement": "Tmax", "setting": "[1]; [8]", "result": 6.00, "unit": "h"}, {"measurement": "exposure compared with free base", "setting": "[1]; [8]", "result": "superior to the free base in key pharmacokinetic measures"}, {"measurement": "AUClast", "setting": "[1]; mice, aqueous suspension, 10 mg/kg of free base, 6-hour study, 10 mg/kg", "result": 230, "unit": "ng·h/mL"}, {"measurement": "Mean plasma concentration at 0.67 hr", "setting": "[1]; mice, aqueous suspension, 10 mg/kg of free base, 0.67 hr, 10 mg/kg", "result": 2.71, "unit": "ng/mL"}, {"measurement": "Mean plasma concentration at 1.0 hr", "setting": "[1]; [7]", "result": 7.32, "unit": "ng/mL"}, {"measurement": "Mean plasma concentration at 1.5 hr", "setting": "[1]; [7]", "result": 21.9, "unit": "ng/mL"}, {"measurement": "Mean plasma concentration at 2.0 hr", "setting": "[1]; mice, aqueous suspension, 10 mg/kg of free base, 2.0 hr, 10 mg/kg", "result": 31.7, "unit": "ng/mL"}, {"measurement": "Mean plasma concentration at 4.0 hr", "setting": "[1]; mice, aqueous suspension, 10 mg/kg of free base, 4.0 hr, 10 mg/kg", "result": 48.3, "unit": "ng/mL"}, {"measurement": "Cmax", "setting": "[1]; mice, aqueous suspension, 10 mg/kg", "result": 78, "unit": "ng/mL"}, {"measurement": "concentration at 0.33 h", "setting": "[1]; mouse, plasma, oral, 10 mg/kg, Mean plasma concentration at 0.33 hr, mice, aqueous suspension, 10 mg/kg of free base, 0.33 hr", "result": 0.679, "unit": "ng/mL"}, {"measurement": "solubility in methanol, ethanol or 95% ethanol", "setting": "[3]", "result": "least soluble in methanol of the three salts tested"}, {"measurement": "solubility in methanol, ethanol or 95% ethanol", "setting": "[3]; listed as Phosphoric Acid", "result": "low in methanol"}]}, {"molecule": "CN1CCN(Cc2ccc(-c3cnc4[nH]cc(-c5ccc6[nH]ccc6c5)c4c3)cc2)CC1", "note": "[Fumarate, 3-(1H-indol-5-yl)-5-[4-[(4-methyl-1-piperazinyl)methyl]phenyl]-1H-pyrrolo[2,3-b]pyridine]", "values": [{"measurement": "solubility in methanol, ethanol or 95% ethanol", "setting": "[3]", "result": "dissolved readily in hot methanol"}]}, {"molecule": "tartrate salt of 3-(1H-indol-5-yl)-5-[4-[(4-methyl-1-piperazinyl)methyl]phenyl]-1H-pyrrolo[2,3-b]pyridine", "values": [{"measurement": "AUClast", "setting": "[5]", "result": 259, "unit": "ng·h/mL"}, {"measurement": "Cmax", "setting": "[5]", "result": 66.9, "unit": "ng/mL"}, {"measurement": "Mean plasma concentration at 0.33 hr", "setting": "[5]", "result": 4.24, "unit": "ng/mL"}, {"measurement": "Mean plasma concentration at 0.67 hr", "setting": "[5]", "result": 8.2, "unit": "ng/mL"}, {"measurement": "Mean plasma concentration at 1.0 hr", "setting": "[5]", "result": 15.2, "unit": "ng/mL"}, {"measurement": "Mean plasma concentration at 1.5 hr", "setting": "[5]", "result": 31.4, "unit": "ng/mL"}, {"measurement": "Mean plasma concentration at 2.0 hr", "setting": "[5]", "result": 38.8, "unit": "ng/mL"}, {"measurement": "Mean plasma concentration at 4.0 hr", "setting": "[5]", "result": 63.4, "unit": "ng/mL"}, {"measurement": "Tmax", "setting": "[5]", "result": 4.67, "unit": "h"}, {"measurement": "kinetic dissolution in water", "setting": "[6]", "result": "fastest to kinetically dissolve"}]}]}
